Experimental data: ChEMBL document CHEMBL5728172, “Pteridine dione monocarboxylate transporter inhibitors” (2020)

Assay: Biological Activity of Selected Compounds of the Invention: Specific Examples of compounds of the invention, with estimated EC50 values determined using an MTT assay for 4-day viability of Raji (Burkitt's) lymphoma cells, a cell line known to highly express MCT1 and to be sensitive to small molecule MCT inhibitors,4 are shown in Table 3. Assay protocols follow those described in the literature.4 Other assays that are not described here but that are standard in the field, such as an assay for competitive inhibition of transport of radiolabeled lactic acid, an MCT substrate, may also be useful in establishing mechanism of action of these compounds.
Settings: 96 h

Work on `CC(C)Cn1c(=O)n(C)c(=O)c2nc(CCCCCO)c(COc3cccc4ncccc34)nc21` yielded an EC50 of less than 50 nM.
